Assay results as given in patent publication US7348359B2, “Retinoid X receptor modulators” (Eli Lilly and Company, priority 2001, dated 2008).

Experiments:
[1] = target: T1, RXR α (Homo sapiens, UniProt P19793); test: RXR α binding, Ki from IC50 by Cheng-Prussof equation using tritiated LGD1069; details: determined from IC50 values by the Cheng-Prussof equation using tritiated LGD1069; read-out: Bind RXR α Ki
T1 sequence (P19793 1-462): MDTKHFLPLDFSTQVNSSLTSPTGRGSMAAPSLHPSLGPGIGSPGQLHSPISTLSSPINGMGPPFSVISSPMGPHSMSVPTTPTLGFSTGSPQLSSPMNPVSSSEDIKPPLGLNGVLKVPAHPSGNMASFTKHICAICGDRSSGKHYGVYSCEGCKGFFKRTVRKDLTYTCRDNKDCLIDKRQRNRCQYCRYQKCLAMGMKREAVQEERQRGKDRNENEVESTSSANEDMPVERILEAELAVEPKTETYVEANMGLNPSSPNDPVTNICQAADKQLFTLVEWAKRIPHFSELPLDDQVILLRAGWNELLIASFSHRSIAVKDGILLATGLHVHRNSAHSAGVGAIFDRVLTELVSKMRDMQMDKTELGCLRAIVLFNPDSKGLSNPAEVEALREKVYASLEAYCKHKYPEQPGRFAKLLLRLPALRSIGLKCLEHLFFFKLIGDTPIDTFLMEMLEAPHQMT

[2] = target: T2, RXR:PPARγ (Homo sapiens, UniProt P19793); test: RXR:PPARγ synergy with BRL49653 in CV-1 cells; format: cell-based; details: maximal response in presence of 100 nM BRL49653 (RXR:PPARγ) relative to maximal response of BRL49653 alone
T2 construct: host or cells: CV-1
T2 sequence (P19793 1-462): T1 sequence (P19793 1-462)
T2 sequence (P37231 1-505 partner): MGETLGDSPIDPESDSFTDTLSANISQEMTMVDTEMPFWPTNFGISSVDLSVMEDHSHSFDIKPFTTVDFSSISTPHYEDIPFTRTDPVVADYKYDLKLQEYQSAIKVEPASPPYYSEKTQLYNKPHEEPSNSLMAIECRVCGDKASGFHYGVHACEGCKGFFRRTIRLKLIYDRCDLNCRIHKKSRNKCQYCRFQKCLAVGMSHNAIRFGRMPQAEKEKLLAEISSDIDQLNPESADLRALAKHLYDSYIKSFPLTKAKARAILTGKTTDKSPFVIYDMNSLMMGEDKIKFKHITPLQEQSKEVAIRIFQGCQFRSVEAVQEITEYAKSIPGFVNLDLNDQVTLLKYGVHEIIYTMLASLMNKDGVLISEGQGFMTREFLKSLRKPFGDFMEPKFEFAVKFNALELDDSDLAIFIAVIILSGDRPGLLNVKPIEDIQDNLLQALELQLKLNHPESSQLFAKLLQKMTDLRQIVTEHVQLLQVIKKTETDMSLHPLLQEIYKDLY

[3] = target: T3, RXR:RXR (Homo sapiens, UniProt P19793); test: RXR:RXR agonist/antagonist efficacy in CV-1 cells; format: cell-based; details: for RXR:RXR CV-1 (%) Antag: maximal repression (100%) in the presence of 32 nM LGD1069; for RXR:RXR CV-1 (%) Ag: maximal response relative to maximal response of ATRA
T3 construct: host or cells: CV-1
T3 sequence (P19793 1-462): T1 sequence (P19793 1-462)

[4] = target: T4, RXR:RAR (Homo sapiens, UniProt P19793); test: RXR:RAR agonist efficacy in CV-1 cells; format: cell-based; details: for RXR:RAR CV-1 (%) Ag.: maximal response relative to maximal response of ATRA; for activation of RXR:RAR heterodimers: statement on Table 1
T4 construct: host or cells: CV-1
T4 sequence (P19793 1-462): T1 sequence (P19793 1-462)
T4 sequence (P10276 1-462 partner): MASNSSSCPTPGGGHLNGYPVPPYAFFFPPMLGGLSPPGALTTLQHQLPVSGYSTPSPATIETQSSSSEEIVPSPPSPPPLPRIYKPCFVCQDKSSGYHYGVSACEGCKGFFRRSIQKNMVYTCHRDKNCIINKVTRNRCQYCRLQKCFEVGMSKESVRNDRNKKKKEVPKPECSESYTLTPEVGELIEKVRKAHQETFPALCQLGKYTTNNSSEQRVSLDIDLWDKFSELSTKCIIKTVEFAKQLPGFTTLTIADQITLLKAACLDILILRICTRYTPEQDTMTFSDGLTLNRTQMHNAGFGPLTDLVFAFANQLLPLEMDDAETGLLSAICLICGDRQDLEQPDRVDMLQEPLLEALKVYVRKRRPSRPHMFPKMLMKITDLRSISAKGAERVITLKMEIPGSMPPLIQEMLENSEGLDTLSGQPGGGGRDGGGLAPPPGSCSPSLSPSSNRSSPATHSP

[5] = test system: db/db mouse; test: db/db mouse plasma glucose and triglycerides, oral gavage; format: in vivo; details: for db/db mouse Glu. (D 7): plasma glucose as a % correction relative to lean values on day 7 of treatment with 30 mg/kg/day; for db/db mouse Trigs. (D 3): plasma triglycerides as a % of control values on day 3 of treatment with 30 mg/kg/day
[6] = test system: transgenic mice carrying the human apo A-I gene; test: Mice transgenic for the human apolipoprotein A-I gene: HDL cholesterol and triglycerides; format: in vivo; details: transgenic mouse model; Table 1
From the text: Mice transgenic for the human apolipoprotein A-I gene (obtained from Jackson Laboratory) were used to evaluate PPARα mediated effects on high density lipoprotein (HDL) cholesterol. The mice were handled as described above for db/db mice, except that they were fed Purina 5001.
When administered to transgenic mice carrying the human apo A-I gene, compounds of the invention are expected to increase HDL cholesterol. […] This effect is consistent with activation of PPARα and, in fact, in vivo these compounds synergize with the weak PPARα agonist fenofibrate.

[7] = test system: rodent models of NIDDM; test: Rodent models of NIDDM, effects of full RXR homodimer agonists
Experimental: All animal experiments were conducted in a United States Department of Agriculture registered facility in accordance with NIH guidelines for the care and use of laboratory animals. Mice (obtained from Jackson Laboratory), ZDF rats (obtained from Genetic Models Inc.) and fa/fa rats (obtained from either Charles River, or Harlan) were maintained on 12-hour light/dark cycle. Mice (age 28-42 days) were caged in groups of 5-6. Rats (age 7 weeks) were housed individually. […] Compounds were administered at the specified doses by oral gavage on the morning of each day of any experiment. Blood samples were obtained 3 hours after dosing from fed animals under anesthesia and collected into heparinized capillary tubes from the tail vein.

Row | melting point | SMILES | Ki [1] | PPARγ CV-1 (%) Synergy [2] | RXR:RXR CV-1 (%) Antag [3] | RXR:RXR CV-1 (%) Ag [3] | RXR:RAR CV-1 (%) Ag. [4] | activation of RXR:RAR heterodimers [4] | db/db mouse Glu. (D 7) [5] | db/db mouse Trigs. (D 3) [5] | triglycerides [6] | other results
1 | – | CCCOc1c(-c2cccc3sc(/C(C)=C/C(=O)O)cc23)cc(C(C)C)cc1C(C)C [Ex. 15] | 14 nM | 109% | 81% | 4% | 6% | do not activate RXR:RAR heterodimers | 20% | 98% | do not raise triglycerides | –
2 | 146 to 153 °C | C/C(=C\C(=O)O)c1ccc2[nH]cc(-c3cc(C(C)(C)C)cc(C(C)(C)C)c3OCC(F)(F)F)c2c1 [Example 65, 3-{3-[3,5-Di-tert-butyl-2-(2,2,2-trifluoro-ethoxy)-phenyl]-1H-indol-5-yl}-but-2-enoic acid] | – | – | – | – | – | – | – | – | – | –
3 | – | Cc1cc2c(cc1C1(c3ccc(C(=O)O)cn3)CC1)C(C)(C)CCC2(C)C [LG100268] | – | – | – | – | – | – | 73% | 195% | raises triglycerides | blood glucose levels [7]: lower blood glucose levels; thyroid hormone axis [7]: suppress the thyroid hormone axis; triglycerides [7]: raise triglycerides
4 | – | CCOc1c(-c2cccc3cc(/C(C)=C/C(=O)O)oc23)cc(C(C)C)cc1C(C)C [Ex. 5, 3-[7-(2-Ethoxy-3,5-diisopropylphenyl)-benzo[b]furan-2-yl]-but-2-enoic acid] | 22 nM | 140% | 10% | 33% | 3% | do not activate RXR:RAR heterodimers | 17% | 104% | do not raise triglycerides | –
5 | – | CN(C)C(=N)N=C(N)N [metformin, reference compound] | – | – | – | – | – | – | – | – | – | plasma glucose ([5]; 7 week old db/db mice, 300 mg/kg by daily oral gavage, maximum effect after first week, efficacy decreases over 3 subsequent weeks): lowers plasma glucose
6 | 135 to 145 °C | C/C(=C\C(=O)O)c1ccc2[nH]cc(-c3cc(C(C)(C)C)cc(C(C)(C)C)c3OCC(F)F)c2c1 [Example 64, 3-{3-[3,5-Di-tert-butyl-2-(2,2-difluro-ethoxy)-phenyl]-1H-indol-5-yl}-but-2-enoic acid] | – | – | – | – | – | – | – | – | – | –
7 | 105 to 115 °C | CCCOc1c(-c2c[nH]c3ccc(/C(C)=C/C(=O)O)cc23)cc(C(C)(C)C)cc1C(C)(C)C [Example 63, 3-[3-(3,5-Di-tert-butyl-2-propoxy-phenyl)-1H-indol-5-yl]-but-2-enoic acid] | – | – | – | – | – | – | – | – | – | –
8 | – | CCCCOc1c(-c2c(F)ccc3sc(/C(C)=C/C(=O)O)cc23)cc(C(C)C)cc1C(C)C [Ex. 18, (E)-3-[4-(2-n-Butoxy-3,5-di-iso-propylphenyl)-5-fluorobenzo[b]thien-2-yl]-but-2-enoic acid] | 54 nM | 40% | 86% | 1% | 4% | do not activate RXR:RAR heterodimers | 38% | 105% | do not raise triglycerides | –
9 | – | C/C(=C\C(=O)O)c1cc2c(-c3cc(C(C)(C)C)cc(C(C)(C)C)c3OCC(F)F)cccc2s1 [Ex. 14, 3-{4-[2-(2,2-Difluoroethoxy)-3,5-di-tert-butylphenyl]-benzo[b]thien-2-yl}-but-2-enoic acid] | 12 nM | 67% | 79% | 1% | 2% | do not activate RXR:RAR heterodimers | 35% | 139% | do not raise triglycerides | –

Row | SMILES | melting point | Ki [1] | PPARγ CV-1 (%) Synergy [2] | RXR:RXR CV-1 (%) Antag [3] | RXR:RXR CV-1 (%) Ag [3] | RXR:RAR CV-1 (%) Ag. [4] | activation of RXR:RAR heterodimers [4] | db/db mouse Glu. (D 7) [5] | db/db mouse Trigs. (D 3) [5] | triglycerides [6] | other results
10 | CCCCOc1c(-c2ccnc3ccc(/C(C)=C/C(=O)O)cc23)cc(C(C)C)cc1C(C)C [Example 54, 3-[4-(2-Butoxy-3,5-diisopropyl-phenyl)quinolin-6-yl]-but-2(E)-enoic acid] | 195.3 °C | – | – | – | – | – | – | – | – | – | –
11 | CCCCOc1c(-c2nccc3ccc(/C(C)=C/C(=O)O)cc23)cc(C(C)C)cc1C(C)C [Example 53, 3-[1-(2-Butoxy-3,5-diisopropyl-phenyl)-isoquinolin-7-yl]-but-2(E)-enoic acid] | 149.8 °C | – | – | – | – | – | – | – | – | – | –
